According to ChEMBL document CHEMBL1137593, “Identification and optimisation of a series of substituted 5-pyridin-2-yl-thiophene-2-hydroxamic acids as potent histone deacetylase (HDAC) inhibitors” (Bioorg Med Chem Lett, 2007):

How the values were obtained:
HCT-116 = assay: cells; assay type: functional, cell-based; settings: Homo sapiens
Description: Inhibition of HCT116 cell proliferation (mean of two experiments)

Histone deacetylase 1 = Histone deacetylase 1 (Homo sapiens, UniProt Q13547); assay: Inhibition of HDAC activity measured by HDAC Fluorescent Activity Assay (mean of two experiments); assay type: functional
MCF7 = assay: Inhibition of MCF7 cell proliferation (mean of two experiments); assay type: functional, cell-based; settings: Homo sapiens
MDA-MB-231 = assay: cells; assay type: functional, cell-based; settings: Homo sapiens
Description: Inhibition of MDA-MB-231 cell proliferation (mean of two experiments)

CYP2C9 = CYP2C9 (Homo sapiens, UniProt P11712); assay: Percent inhibition of CYP450 2C9 at 1 uM concentration; assay type: ADME
[1] = AUC after i.p. dosing at 5 mg kg-1; assay type: ADME, organism-based; parameters: dose 5 mg kg-1, route intraperitoneal; settings: mouse, plasma, ip
[2] = Hepatocyte stability; assay type: ADME, cell-based; settings: hepatocytes
CYP2D6 = CYP2D6 (Homo sapiens, UniProt P10635); assay: Percent inhibition of CYP450 2D6 at 1uM concentration; assay type: ADME
[3] = Microsome stability: percent compound remaining; assay type: ADME; settings: microsomes
CYP1A2 = biological target: T1, CYP1A2 (Homo sapiens, UniProt P05177); assay: Percent inhibition of CYP450 1A2 at 1 uM concentration; assay type: ADME
T1 sequence (P05177 whole entry): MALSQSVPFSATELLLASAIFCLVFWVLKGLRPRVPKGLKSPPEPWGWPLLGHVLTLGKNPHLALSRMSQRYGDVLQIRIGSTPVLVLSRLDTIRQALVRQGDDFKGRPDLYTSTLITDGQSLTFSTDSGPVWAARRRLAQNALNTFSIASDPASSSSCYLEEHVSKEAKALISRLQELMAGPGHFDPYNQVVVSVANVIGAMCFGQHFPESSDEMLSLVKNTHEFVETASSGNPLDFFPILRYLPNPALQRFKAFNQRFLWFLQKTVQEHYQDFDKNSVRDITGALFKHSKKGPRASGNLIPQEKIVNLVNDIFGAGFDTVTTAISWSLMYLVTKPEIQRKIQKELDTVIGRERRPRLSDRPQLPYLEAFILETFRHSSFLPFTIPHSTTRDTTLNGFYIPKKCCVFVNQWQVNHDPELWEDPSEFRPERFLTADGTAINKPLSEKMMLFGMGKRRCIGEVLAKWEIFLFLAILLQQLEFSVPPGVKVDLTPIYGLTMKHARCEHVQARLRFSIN

[4] = Oral bioavailability after oral dosing at 5 mg kg-1; assay type: ADME, organism-based; settings: in vivo
[5] = Bioavailability after i.p. dosing at 5 mg kg-1; assay type: ADME, organism-based; settings: mouse, in vivo, ip
[6] = Half life after i.v. dosing at 1 mg kg-1; assay type: ADME, organism-based; parameters: dose 1 mg kg-1, route intravenous; settings: in vivo, iv
[7] = Steady state volume of distribution (Vdss) after i.v. dosing at 1 mg kg-1; assay type: ADME, organism-based; parameters: dose 1 mg kg-1, route intravenous; settings: in vivo, iv, read-out: Vdss
[8] = (§1) AUC after oral dosing at 5 mg kg-1; assay type: ADME, organism-based; parameters: dose 5 mg kg-1, route oral; settings: rat, plasma
CYP2C19 = CYP2C19 (Homo sapiens, UniProt P33261); assay: Percent inhibition of CYP450 2C19 at 1 uM concentration; assay type: ADME
[9] = as §1; assay type: ADME, organism-based, Plasma; parameters: dose 5 mg kg-1, route oral; settings: mouse, plasma
[10] = Permeability (Papp) run from pH 6.5-7.4; assay type: ADME, cell-based; settings: human, Caco-2, pH 6.5
Cytochrome P450 3A4 = Cytochrome P450 3A4 (Homo sapiens, UniProt P08684); assay: Inhibition of CYP450 3A4; assay type: ADME
[11] = Clearance after i.v. dosing at 1 mg kg-1; assay type: ADME, organism-based; parameters: dose 1 mg kg-1, route intravenous; settings: in vivo, iv

Chain of Histone deacetylase 1 (Q13547 whole entry): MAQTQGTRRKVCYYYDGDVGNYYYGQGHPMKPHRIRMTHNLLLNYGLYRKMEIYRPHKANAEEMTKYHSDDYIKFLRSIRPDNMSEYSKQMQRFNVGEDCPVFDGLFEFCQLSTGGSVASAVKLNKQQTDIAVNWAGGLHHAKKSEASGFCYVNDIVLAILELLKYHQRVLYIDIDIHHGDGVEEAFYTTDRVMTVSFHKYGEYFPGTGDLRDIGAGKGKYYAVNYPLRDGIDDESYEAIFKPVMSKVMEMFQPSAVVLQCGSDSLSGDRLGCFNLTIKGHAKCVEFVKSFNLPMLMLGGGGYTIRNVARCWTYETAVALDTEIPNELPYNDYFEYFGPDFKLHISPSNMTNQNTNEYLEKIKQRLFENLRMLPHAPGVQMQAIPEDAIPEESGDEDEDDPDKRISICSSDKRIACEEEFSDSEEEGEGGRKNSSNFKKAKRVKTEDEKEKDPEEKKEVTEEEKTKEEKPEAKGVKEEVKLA
Chain of CYP2C19 (P33261 whole entry): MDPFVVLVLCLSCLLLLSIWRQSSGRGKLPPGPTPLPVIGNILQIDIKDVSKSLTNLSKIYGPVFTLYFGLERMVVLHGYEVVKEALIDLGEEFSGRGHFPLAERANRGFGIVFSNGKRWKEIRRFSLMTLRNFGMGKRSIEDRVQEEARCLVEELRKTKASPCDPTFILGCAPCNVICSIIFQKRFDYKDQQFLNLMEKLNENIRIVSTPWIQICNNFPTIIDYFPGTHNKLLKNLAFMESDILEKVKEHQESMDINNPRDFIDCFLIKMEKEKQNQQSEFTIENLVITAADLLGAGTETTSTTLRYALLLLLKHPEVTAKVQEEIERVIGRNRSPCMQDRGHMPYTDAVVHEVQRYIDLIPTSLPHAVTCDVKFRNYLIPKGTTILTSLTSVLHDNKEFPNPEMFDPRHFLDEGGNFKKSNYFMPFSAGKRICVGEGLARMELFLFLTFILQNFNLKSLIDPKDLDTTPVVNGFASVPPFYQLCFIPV
Chain of CYP2D6 (P10635 whole entry): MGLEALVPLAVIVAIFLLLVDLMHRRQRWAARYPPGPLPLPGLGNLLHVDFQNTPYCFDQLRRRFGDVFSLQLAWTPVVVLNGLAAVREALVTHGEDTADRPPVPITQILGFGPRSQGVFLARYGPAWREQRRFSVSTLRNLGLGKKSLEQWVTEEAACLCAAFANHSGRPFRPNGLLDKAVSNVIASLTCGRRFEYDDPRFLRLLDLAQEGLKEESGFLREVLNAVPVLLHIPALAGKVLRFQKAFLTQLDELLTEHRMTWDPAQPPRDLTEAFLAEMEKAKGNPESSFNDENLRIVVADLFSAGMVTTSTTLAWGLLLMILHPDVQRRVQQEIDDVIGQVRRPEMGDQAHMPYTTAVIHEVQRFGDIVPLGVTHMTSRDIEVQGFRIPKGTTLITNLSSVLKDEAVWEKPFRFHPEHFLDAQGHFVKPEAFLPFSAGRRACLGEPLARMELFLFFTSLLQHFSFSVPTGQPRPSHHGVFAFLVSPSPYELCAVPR
Chain of CYP2C9 (P11712 whole entry): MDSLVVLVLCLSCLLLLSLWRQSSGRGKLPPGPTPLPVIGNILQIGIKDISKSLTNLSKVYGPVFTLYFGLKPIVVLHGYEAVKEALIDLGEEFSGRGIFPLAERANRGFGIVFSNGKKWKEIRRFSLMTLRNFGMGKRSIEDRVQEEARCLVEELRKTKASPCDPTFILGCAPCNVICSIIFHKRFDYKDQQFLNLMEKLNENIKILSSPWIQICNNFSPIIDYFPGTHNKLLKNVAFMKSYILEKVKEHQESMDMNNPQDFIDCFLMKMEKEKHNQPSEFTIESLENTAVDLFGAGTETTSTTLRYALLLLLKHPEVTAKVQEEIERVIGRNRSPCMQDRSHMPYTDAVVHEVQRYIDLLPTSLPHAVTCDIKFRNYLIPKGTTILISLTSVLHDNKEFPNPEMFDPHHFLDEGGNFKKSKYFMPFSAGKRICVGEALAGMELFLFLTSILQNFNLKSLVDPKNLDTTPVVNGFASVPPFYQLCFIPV
Chain of Cytochrome P450 3A4 (P08684 whole entry): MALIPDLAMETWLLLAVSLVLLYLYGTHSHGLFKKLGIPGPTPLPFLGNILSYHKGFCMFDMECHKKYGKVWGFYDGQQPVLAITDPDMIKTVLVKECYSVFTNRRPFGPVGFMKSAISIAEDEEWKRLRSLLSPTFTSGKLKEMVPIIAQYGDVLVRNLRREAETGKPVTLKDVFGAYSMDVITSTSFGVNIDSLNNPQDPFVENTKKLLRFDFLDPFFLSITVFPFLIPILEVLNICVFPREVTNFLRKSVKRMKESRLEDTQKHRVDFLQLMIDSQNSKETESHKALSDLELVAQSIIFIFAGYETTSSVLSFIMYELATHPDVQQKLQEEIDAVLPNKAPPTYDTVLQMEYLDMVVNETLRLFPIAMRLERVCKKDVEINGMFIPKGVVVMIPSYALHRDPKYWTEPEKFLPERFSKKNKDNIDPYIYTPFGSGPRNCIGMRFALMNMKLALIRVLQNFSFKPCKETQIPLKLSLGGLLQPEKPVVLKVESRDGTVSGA

## O=C(NO)c1ccc(-c2ccc(CNCc3ccc(-c4ccccc4)cc3)cn2)s1
HCT-116
  IC50: 180 nM
Histone deacetylase 1
  IC50: 7 nM
MCF7
  IC50: 150 nM

## CN(Cc1ccccc1)Cc1ccc(-c2ccc(C(=O)NO)s2)nc1
Histone deacetylase 1
  IC50: 35 nM
MDA-MB-231
  IC50: 370 nM
MCF7
  IC50: 150 nM

## O=C(NO)c1ccc(-c2ccc(CNCCc3cccc4occc34)cn2)s1
HCT-116
  IC50: 120 nM
Histone deacetylase 1
  IC50: 4 nM
MCF7
  IC50: 60 nM

## O=C(NO)c1ccc(-c2cccs2)s1
Histone deacetylase 1
  IC50: 2500 nM
MCF7
  IC50: > 100000 nM

## COc1ccccc1CCNCc1ccc(-c2ccc(C(=O)NO)s2)nc1
HCT-116
  IC50: 80 nM
Histone deacetylase 1
  IC50: 17 nM
MCF7
  IC50: 60 nM

## Cc1ccc(CCNCc2ccc(-c3ccc(C(=O)NO)s3)nc2)cc1
HCT-116
  IC50: 60 nM
Histone deacetylase 1
  IC50: 14 nM
MCF7
  IC50: 60 nM

## O=C(NO)c1ccc(-c2ccc(CNc3ccccc3)cn2)s1
Histone deacetylase 1
  IC50: 16 nM
MDA-MB-231
  IC50: 630 nM
MCF7
  IC50: 370 nM

## O=C(NO)c1ccc(-c2ccc(CCNCc3ccc(F)cc3)cn2)s1
HCT-116
  IC50: 140 nM
Histone deacetylase 1
  IC50: 13 nM
MCF7
  IC50: 90 nM

## O=C(NO)c1ccc(-c2ccc(CNCCc3ccc(F)cc3)cn2)s1
HCT-116
  IC50: 100 nM
Histone deacetylase 1
  IC50: 9 nM
MCF7
  IC50: 80 nM

## O=C(NO)c1ccc(-c2ccc(CNCCc3ccccc3)cn2)s1
Histone deacetylase 1
  IC50: 12 nM
MDA-MB-231
  IC50: 200 nM
MCF7
  IC50: 70 nM

## O=C(NO)c1ccc(-c2ccc(CCNCCc3ccccc3)cn2)s1
Histone deacetylase 1
  IC50: 31 nM
MCF7
  IC50: 140 nM

## O=C(NO)c1ccc(-c2ccc(CNCc3ccc4c(c3)OCCO4)cn2)s1
HCT-116
  IC50: 90 nM
Histone deacetylase 1
  IC50: 11 nM
MCF7
  IC50: 50 nM

## O=C(NO)c1ccc(-c2cccc(CNCc3ccccc3)n2)s1
Histone deacetylase 1
  IC50: 359 nM
MCF7
  IC50: 1900 nM

## O=C(NO)c1ccc(-c2ccccc2)s1
Histone deacetylase 1
  IC50: 900 nM
MCF7
  IC50: 31000 nM

## O=C(NO)c1ccc(-c2ccc(CNCc3ccccc3)cn2)s1
CYP2C9
  inhibition at 1 µM: -14%
HCT-116
  IC50: 110 nM
[1]
  AUC: 1250 ng·h/mL
[2]; human
  Hepatocyte stability: 7 uL/min/10e6 cells
[2]; rat
  Hepatocyte stability: 27 uL/min/10e6 cells
Histone deacetylase 1
  IC50: 16 nM
CYP2D6
  inhibition at 1 µM: 1%
[3]; human
  Percent remaining: 88%
[3]; mouse
  Percent remaining: 35%
CYP1A2
  inhibition at 1 µM: 17%
[4]; mouse
  bioavailability: 36%
[4]; rat
  bioavailability: 50%
[5]
  bioavailability: 100%
MDA-MB-231
  IC50: 220 nM
[6]; mouse
  half-life: 10.2 min
[6]; rat
  half-life: 162 min
[7]; mouse
  Vd: 1.1 L/kg
[7]; rat
  Vd: 2.9 L/kg
[8]
  AUC: 3300 ng·h/mL
CYP2C19
  inhibition at 1 µM: -4%
[9]
  AUC: 360 ng·h/mL
[10]
  Papp: 15.4 ×10⁻⁶ cm/s
Cytochrome P450 3A4
  IC50: 26 µM
[11]; mouse
  clearance: 83 mL/min/kg
[11]; rat
  clearance: 13 mL/min/kg
MCF7
  IC50: 80 nM

## O=C(NO)c1ccc(-c2cccnc2)s1
Histone deacetylase 1
  IC50: 1130 nM

## O=C(NO)c1ccc(-c2ccncc2)s1
Histone deacetylase 1
  IC50: 1260 nM

## O=C(NO)c1ccc(-c2ccc(CNCc3ccccc3Cl)cn2)s1
Histone deacetylase 1
  IC50: 7 nM
MDA-MB-231
  IC50: 170 nM
MCF7
  IC50: 110 nM

## O=C(NO)c1ccc(-c2ccc(CCNCc3ccccc3)cn2)s1
Histone deacetylase 1
  IC50: 9 nM
MDA-MB-231
  IC50: 210 nM
MCF7
  IC50: 80 nM

## O=C(NO)c1ccc(-c2ccc(CNCc3ccc(Cl)cc3)cn2)s1
Histone deacetylase 1
  IC50: 9 nM
MDA-MB-231
  IC50: 300 nM
MCF7
  IC50: 130 nM

## O=C(NO)c1ccc(-c2cccc(CNCCc3ccccc3)n2)s1
Histone deacetylase 1
  IC50: 581 nM
MCF7
  IC50: 3840 nM

## O=C(NO)c1ccc(-c2ccc(CNCCc3c[nH]c4ccccc34)cn2)s1
HCT-116
  IC50: 180 nM
Histone deacetylase 1
  IC50: 8 nM
MCF7
  IC50: 120 nM

## O=C(NO)c1ccc(-c2ccc(CNCCCc3ccccc3)cn2)s1
Histone deacetylase 1
  IC50: 18 nM
MDA-MB-231
  IC50: 250 nM
MCF7
  IC50: 120 nM

## O=C(NO)c1ccc(-c2ccc(CNCc3ccc4c(c3)OCO4)cn2)s1
HCT-116
  IC50: 70 nM
Histone deacetylase 1
  IC50: 8 nM
MCF7
  IC50: 50 nM

## O=C(NO)c1ccc(-c2ccccn2)s1
Histone deacetylase 1
  IC50: 243 nM
MDA-MB-231
  IC50: 11000 nM
MCF7
  IC50: 2250 nM

## Cc1ccccc1CCNCc1ccc(-c2ccc(C(=O)NO)s2)nc1
HCT-116
  IC50: 70 nM
Histone deacetylase 1
  IC50: 8 nM
MCF7
  IC50: 90 nM

## O=C(NO)c1ccc(-c2ccc(CNCCOc3ccccc3)cn2)s1
Histone deacetylase 1
  IC50: 11 nM
MDA-MB-231
  IC50: 300 nM
MCF7
  IC50: 110 nM

## O=C(NO)c1ccc(-c2ccc(NCCc3ccccc3)cn2)s1
Histone deacetylase 1
  IC50: 80 nM
MDA-MB-231
  IC50: 3510 nM
MCF7
  IC50: 1470 nM

## O=C(NO)c1ccc(-c2ccc(CNCCc3ccccc3Cl)cn2)s1
HCT-116
  IC50: 80 nM
Histone deacetylase 1
  IC50: 6 nM
MCF7
  IC50: 80 nM

## O=C(NO)c1ccc(-c2ncccn2)s1
Histone deacetylase 1
  IC50: 186 nM
MCF7
  IC50: 2120 nM

## Cc1cccc(CCNCc2ccc(-c3ccc(C(=O)NO)s3)nc2)c1
HCT-116
  IC50: 90 nM
Histone deacetylase 1
  IC50: 9 nM
MCF7
  IC50: 60 nM

## O=C(NO)c1ccc(-c2ccc(CCNCc3ccc4c(c3)OCO4)cn2)s1
HCT-116
  IC50: 110 nM
Histone deacetylase 1
  IC50: 9 nM
MCF7
  IC50: 70 nM

## O=C(NO)c1ccc(-c2ccc(CN3CCc4ccccc4C3)cn2)s1
Histone deacetylase 1
  IC50: 30 nM
MDA-MB-231
  IC50: 860 nM
MCF7
  IC50: 220 nM

## O=C(CCCCCCC(=O)Nc1ccccc1)NO [VORINOSTAT]
CYP2C9
  inhibition at 1 µM: 28%
[1]
  AUC: 600 ng·h/mL
[2]; human
  Hepatocyte stability: 3 uL/min/10e6 cells
[2]; rat
  Hepatocyte stability: 12 uL/min/10e6 cells
CYP2D6
  inhibition at 1 µM: 8%
[3]; human
  %R: 97%
[3]; mouse
  %R: 114%
CYP1A2
  inhibition at 1 µM: 14%
[4]; mouse
  bioavailability: 14%
[4]; rat
  bioavailability: 16%
[5]
  bioavailability: 61%
[6]; mouse
  half-life: 48 min
[6]; rat
  half-life: 42 min
[7]; mouse
  Vd: 2.1 L/kg
[7]; rat
  Vd: 1.6 L/kg
[8]
  AUC: 400 ng·h/mL
CYP2C19
  inhibition at 1 µM: 14%
[9]
  AUC: 200 ng·h/mL
[10]
  Papp: 8 ×10⁻⁶ cm/s
[11]; mouse
  clearance: 78 mL/min/kg
[11]; rat
  clearance: 67 mL/min/kg

## O=C(NO)c1ccc(-c2ccc(CNCCc3ccccc3F)cn2)s1
HCT-116
  IC50: 100 nM
Histone deacetylase 1
  IC50: 12 nM
MCF7
  IC50: 90 nM
